Assay results taken from ChEMBL document CHEMBL1157954, “Cycloleonuripeptides E and F, cyclic nonapeptides from Leonurus heterophyllus” (2006).
Residues, ends and D or L forms follow the SMILES beside them.

Tested on: Aorta
Assay: Vasorelaxation activity in Wistar rat thoracic aorta assessed as inhibition of norepinephrine-induced contraction at 10^-4 M
Assay type: functional
Parameters: scale not given: the % may be the effect or the level left

**Q.** `CC(C)C[C@@H]1NC(=O)[C@@H]2CCCN2C(=O)[C@H](Cc2ccc(O)cc2)NC(=O)CNC(=O)[C@@H]2CCCN2C(=O)[C@@H]2CCCN2C(=O)[C@H](Cc2ccc(O)cc2)NC(=O)[C@H](Cc2ccccc2)NC(=O)[C@@H]2CCCN2C1=O` [CYCLOLEONURIPEPTIDE F] (cyclo(FYPPGYPLP)) was tested. Which Activity did it give?
**A.** 40%

**Q.** `CC[C@H](C)[C@@H]1NC(=O)[C@@H]2CCCN2C(=O)[C@H](C)NC(=O)[C@@H]2CCCN2C(=O)[C@H]([C@@H](C)O)NC(=O)[C@H](Cc2ccccc2)NC(=O)[C@H](C)NC(=O)[C@H](C)NC(=O)[C@H](C(C)C)NC1=O` [CYCLOLEONURIPEPTIDE E] (cyclo(AAFTPAPIV)) was tested. Which Activity did it give?
**A.** 32%
